# Data taken from patent US12495798B2, “Nicotinamide compound and herbicidal composition comprising compound” (KOREA RESEARCH INSTITUTE OF CHEMICAL TECHNOLOGY, priority 2019, dated 2025).
# Legend:
# Assay type in all cases: in vivo
# barnyard grass = test: Herbicidal activity test against upland field weeds (foliar treatment test); parameters: key to Foliar treatment herbicidal activity, barnyard grass: 0 (no control); 100 (complete control); conditions: 50 g ai/ha, scale 0-100
# Method in brief: (§1)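 Visual 0–100 control ratings relative to untreated plants, taken 14 (or 21) days after spraying foliage at 50 or 75 g a.i./ha. Spray solution: 50% acetone with 0.1% Tween-20; plants kept in greenhouse at 30±5 °C, 14 h light/10 h dark.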
# crabgrass [1] = test: as above; parameters: key to Foliar treatment herbicidal activity, Crabgrass: 0 (no control); 100 (complete control); conditions: 50 g ai/ha, scale 0-100; for pest or weed control at 50 g/ha: Digitaria sanguinalis
# Method in brief: as §1
# fall panicum [2] = test: as above; conditions: 50 g ai/ha, scale 0-100; for pest or weed control at 50 g/ha: Panicum dichotomiflorum
# Method in brief: as §1
# black nightshade = test: as above; parameters: key to Foliar treatment herbicidal activity, black nightshade: 0 (no control); 100 (complete control); conditions: 50 g ai/ha, scale 0-100
# Method in brief: as §1
# sorghum = test: Herbicidal activity test against upland field weeds (soil treatment test); parameters: key to Soil treatment herbicidal activity, Sorghum: 0 (no control); 100 (complete control); conditions: 50 g ai/ha, scale 0 (no control) to 100 (complete control)
# Method in brief: (§2)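 Weed control scored visually on a 0 (none) to 100 (complete) scale versus untreated pots at 14 or 21 days in greenhouse (30±5 °C, 14 h light). Test compounds, 50 or 75 g a.i./ha in 50% acetone/0.1% Tween-20, hand-sprayed onto soil one day post-sowing.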
# quack grass = test: as above; parameters: key to Soil treatment herbicidal activity, quack grass: 0 (no control); 100 (complete control); conditions: 50 g ai/ha, scale 0 (no control) to 100 (complete control)
# Method in brief: as §2
# crabgrass [3] = test: as above; parameters: key to Soil treatment herbicidal activity, Crabgrass: 0 (no control); 100 (complete control); conditions: 50 g ai/ha, scale 0 (no control) to 100 (complete control)
# Method in brief: as §2
# fall panicum [4] = test: as above; parameters: key to Soil treatment herbicidal activity, Fall panicum: 0 (no control); 100 (complete control); conditions: 50 g ai/ha, scale 0 (no control) to 100 (complete control)
# Method in brief: as §2
# indian jointvetch = test: as above; parameters: key to Soil treatment herbicidal activity, Indian jointvetch: 0 (no control); 100 (complete control); conditions: 50 g ai/ha, scale 0 (no control) to 100 (complete control)
# Method in brief: as §2
# bindweed = test: as above; parameters: key to Soil treatment herbicidal activity, Bindweed: 0 (no control); 100 (complete control); conditions: 50 g ai/ha, scale 0 (no control) to 100 (complete control)
# Method in brief: as §2
# corn = test: Phytotoxicity test for upland field crops (foliar treatment test); parameters: key: 0 (no harm); 9 (complete withered)
# Method in brief: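 Spray-booth foliar treatment of greenhouse-grown crops at 19˜300 g a.i./ha. Visual crop injury was scored 0–9 against untreated plants at 7 and 14 days.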
# [5] = 50 g ai/ha, Corn (7 days after treatment)
# [6] = 50 g ai/ha, Corn (14 days after treatment)
# [7] = 100 g ai/ha, Corn (7 days after treatment)
# [8] = 100 g ai/ha, Corn (14 days after treatment)
Structure (SMILES),"Foliar treatment herbicidal activity, barnyard grass (barnyard grass)","Foliar treatment herbicidal activity, Crabgrass (crabgrass [1])","Foliar treatment herbicidal activity, Fall panicum (fall panicum [2])","Foliar treatment herbicidal activity, black nightshade (black nightshade)","Soil treatment herbicidal activity, Sorghum (sorghum)","Soil treatment herbicidal activity, quack grass (quack grass)","Soil treatment herbicidal activity, Crabgrass (crabgrass [3])","Soil treatment herbicidal activity, Fall panicum (fall panicum [4])","Soil treatment herbicidal activity, Indian jointvetch (indian jointvetch)","Soil treatment herbicidal activity, Bindweed (bindweed)","Foliar treatment phytotoxicity, Corn (corn; [5])","Foliar treatment phytotoxicity, Corn (corn; [6])","Foliar treatment phytotoxicity, Corn (corn; [7])","Foliar treatment phytotoxicity, Corn (corn; [8])",pest or weed control at 50 g/ha (barnyard grass; Echinochloa crus-galli) [%],pest or weed control at 50 g/ha (crabgrass [1]) [%],pest or weed control at 50 g/ha (fall panicum [2]) [%],pest or weed control at 50 g/ha (indian jointvetch) [%],pest or weed control at 50 g/ha (bindweed) [%]
"CCOC(=O)OC(C)n1nnn(C)c1=NC(=O)c1ccc(C(F)(F)F)nc1CSCc1nnn(C)n1 (centres unmarked) [Compound No. 4-10, ethyl (1-(4-methyl-5-((2-((((2-methyl-2H-tetrazol-5-yl)methyl)thio)methyl)-6-(trifluoromethyl)nicotinoyl)imino)-4,5-dihydro-1H-tetrazol-1-yl)ethyl)carbonate]",98,100,95,100,40,0,100,40,95BI,40,2,1,3,1,,,,,
"Cn1nnc(CSCc2nc(C(F)F)ccc2C(=O)Nc2nnnn2C)n1 [Compound No. 2-108, 6-(difluoromethyl)-N-(1-methyl-1H-tetrazol-5-yl)-2-((((2-methyl-2H-tetrazol-5-yl)methyl)thio)methyl)nicotinamide]",,,,100,0,0,0,0,0,0,0,0,0,0,60,60,50,,
"Cn1nnc(CSCc2nc(C(F)(F)F)ccc2C(=O)N(C(=O)c2ccccc2)c2nnnn2C)n1 [Compound No. 2-109, N-benzoyl-N-(1-methyl-1H-tetrazol-5-yl)-2-((((2-methyl-2H-tetrazol-5-yl)methyl)thio)methyl)-6-(trifluoromethyl)nicotinamide]",100,100,,100,0,0,0,0,0,0,0,0,0,0,,,95,,
"Cn1nnc(CS(=O)(=O)Cc2nc(C(F)(F)F)ccc2C(=O)Nc2nnnn2C)n1 [Compound No. 2-105, N-(1-methyl-1H-tetrazol-5-yl)-2-((((2-methyl-2H-tetrazol-5-yl)methyl)sulfonyl)methyl)-6-(trifluoromethyl)nicotinamide]",0,,,100,0,0,0,0,,,0,0,0,0,,30,50,90,30
